Strand notation (5' to 3'): a small letter for the sugar, then the base; units joined by * are phosphorothioate-linked, units joined directly phosphodiester-linked; [ ] holds rarer units or linkages, { } end groups; capitals alone tell only the bases. e = 2'-O-(2-methoxyethyl) (MOE); [5mC] = 5-methylcytosine; d = 2'-deoxy (DNA)

In general, % inhibition refers to the change of the read-out against control, counted positive when it falls. Usually IC50 stands for the point on the concentration scale where inhibition reaches its midpoint.

Data set [1] deals with human Factor 11 mRNA. The experiment in a line: Antisense inhibition of human Factor 11 in HepG2 cells by microwalk gapmers, lipofectin, 75 nM (Example 3). The following applies: HepG2 cells, lipofectin, gapmers targeted to nucleobases 1275 to 1318 of SEQ ID NO: 1. It is filed as cell-based. A digest of the protocol: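 HepG2 cells (10,000/well) were transfected via lipofectin with 75 nM 20-mer MOE gapmers (phosphorothioate, 5-methyl-C) for about 24 h. Factor 11 mRNA was measured by qRT-PCR, normalized to RIBOGREEN total RNA, and given as percent inhibition versus untreated cells.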

Data set [2] deals with human Factor 11 mRNA. The experiment in a line: Antisense inhibition of human Factor 11 in HepG2 cells, electroporation, 8,000 nM (Example 30). Format: cell-based. The following applies: electroporation, 8,000 nM antisense oligonucleotide. A digest of the protocol: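 HepG2 cells electroporated with 8,000 nM 5-10-5, 5-8-5 or 6-8-6 MOE gapmers (phosphorothioate, 5-methylcytidine), ~24 h. Factor 11 mRNA quantified by qRT-PCR, normalised to RIBOGREEN total RNA. Reported as percent inhibition versus untreated cells.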

On the set-up of data set [3]: species or system CD1 mice. The following applies: mouse, in vivo, sc, 50 mg/kg. The method, then:
The concentration of the full-length oligonucleotide was measured. The method used is a modification of previously published methods (Leeds et al., 1996; Geary et al., 1999) which consist of a phenol-chloroform (liquid-liquid) extraction followed by a solid phase extraction. An internal standard (ISIS 355868, a 27-mer 2′-O-methoxyethyl modified phosphorothioate oligonucleotide, […], designated herein as SEQ ID NO: 270) was added prior to extraction. […] The results are presented in Table 85 expressed as μg/g liver tissue.

On the set-up of data set [4]: species or system Sprague-Dawley rats. The following applies: rat, in vivo, sc, 20 mg/kg. The method, then: The concentration of the full-length oligonucleotide as well as the total oligonucleotide concentration (including the degraded form) was measured. The method used is a modification of previously published methods (Leeds et al., 1996; Geary et al., 1999) which consist of a phenol-chloroform (liquid-liquid) extraction followed by a solid phase extraction. An internal standard (ISIS 355868, a 27-mer 2′-O-methoxyethyl modified phosphorothioate oligonucleotide, […], designated herein as SEQ ID NO: 270) was added prior to extraction. […] The results are presented in Tables 91 and 92, expressed as μg/g liver or kidney tissue. Half-lives were then calculated using WinNonlin software ([…]).

Data set [5] can be described thus: Viscosity of ISIS antisense oligonucleotides, micro-viscometer at 25 °C (Example 47). The following applies: for Concentration: concentration of the viscosity sample, UV reading at 260 nM at 85° C.; for Viscosity: in water, micro-viscometer at 25° C., at the concentration of the same line. Format: physicochemical. The method, then: The viscosity of antisense oligonucleotides targeting human Factor 11 was measured with the aim of screening out antisense oligonucleotides which have a viscosity more than 40 cP at a concentration of 165-185 mg/mL.
ISIS oligonucleotides (32-35 mg) were weighed into a glass vial, 120 μL of water was added and the antisense oligonucleotide was dissolved into solution by heating the vial at 50° C. Part of (75 μL) the pre-heated sample was pipetted to a micro-viscometer (Cambridge). The temperature of the micro-viscometter was set to 25° C. and the viscosity of the sample was measured. Another part (20 μL) of the pre-heated sample was pipetted into 10 mL of water for UV reading at 260 nM at 85° C. (Cary UV instrument).

The subject of data set [6] is human Factor 11 mRNA. Description: Dose-dependent inhibition of human Factor 11 in HepG2 cells, electroporation 375-12,000 nM (Example 32). Format: cell-based. Here is the method: These gapmers were tested at various doses in HepG2 cells. Cells were plated at a density of 20,000 cells per well and transfected using electroporation with 375 nM, 750 nM, 1,500 nM, 3,000 nM, 6,000 nM and 12,000 nM concentrations of antisense oligonucleotide, as specified in Table 47. After a treatment period of approximately 16 hours, RNA was isolated from the cells and Factor 11 mRNA levels were measured by quantitative real-time PCR. Human Factor 11 primer probe set RTS 2966 was used to measure mRNA levels. Factor 11 mRNA levels were adjusted according to total RNA content, as measured by RIBOGREEN. Results are presented as percent inhibition of Factor 11, relative to untreated control cells.
ISIS 416850, ISIS 416858, ISIS 445522, and ISIS 445531 (see Table 45 above) were re-tested in vitro along with the microwalk gapmers under the same conditions described above.
The first two listed gapmers in Table 47 are the original gapmers (ISIS 416850 and ISIS 416858) from which the remaining gapmers were designed via microwalk and are designated by an asterisk.

The next data set relates to Factor 11 mRNA. The experiment in a line: Factor 11 mRNA in cynomolgus monkey liver, day 55 (Example 46). Format: in vivo, cynomolgus monkeys. The note with it: 25 mg/kg subcutaneously, primer probe set LTS00301. Here is the method: (§1) Groups, each consisting of two male and two female monkeys, were injected subcutaneously with 25 mg/kg of ISIS 416850, ISIS 449709, ISIS 445522, ISIS 449710, ISIS 449707, ISIS 449711, ISIS 449708, 416858, and ISIS 445531. Antisense oligonucleotide was administered to the monkeys at 25 mg/kg three times per week for week 1 and 25 mg/kg twice per week for weeks 2 to 8. A control group, consisting of two male and two female monkeys was injected subcutaneously with PBS according to the same dosing regimen. Body weights were taken 14 days and 7 days before the start of treatment and were then measured weekly throughout the treatment period. Blood samples were collected 14 days and 5 days before the start of treatment and subsequently several times during the dosing regimen for PT and aPTT measurements, and measurement of various hematologic factors. On day 55, the monkeys were euthanized by exsanguination while under deep anesthesia, and organs harvested for further analysis.
On day 55, RNA was extracted from liver tissue for real-time PCR analysis of Factor 11 using primer probe set LTS00301. Results are presented as percent inhibition of Factor 11, relative to PBS control.

For another data set, the system named is Factor 11 protein. The experiment in a line: Factor 11 protein in monkey plasma by sandwich ELISA (Example 46). It is filed as in vivo, cynomolgus monkeys. The note with it: 25 mg/kg subcutaneously. The method, then:
as §1
Plasma samples from all monkey groups taken on different days were analyzed by a sandwich-style ELISA assay (Affinity Biologicals Inc.) using an affinity-purified polyclonal anti-Factor 11 antibody as the capture antibody and a peroxidase-conjugated polyclonal anti-Factor 11 antibody as the detecting antibody. Monkey plasma was diluted 1:50 for the assay. Peroxidase activity was expressed by incubation with the substrate o-phenylenediamine. The color produced was quantified using a microplate reader at 490 nm and was considered to be proportional to the concentration of Factor 11 in the samples.
The results are presented in Table 147, expressed as percentage reduction relative to that of the PBS control.
Background: An ELISA detects its analyte on a solid surface through an enzyme-linked reagent.

As for “416848 (antisense CACAGTTTCTGGCAGGCCTC; 5-10-5 gapmer, further chemistry not given here) [compound 416848]”, the “% inhibition” value with human Factor 11 mRNA [1] was 86%. For the same substance, in the data set on human Factor 11 mRNA [2], the “Percent inhibition of human Factor 11 mRNA levels” value came to 87%. Further, the “Half-Life in the liver” value in data set [3] came out at 23.5 days. The “Half-life of ISIS oligonucleotides in the liver and kidney” value (“Half-life of ISIS oligonucleotides” for short) in data set [4] came out at 24 days. In data set [5], this substance displayed a Concentration of 158 mg/mL and a Viscosity of 6 cP.
As to “416852 (antisense TGGTGCACAGTTTCTGGCAG; 5-10-5 gapmer, further chemistry not given here) [compound 416852]”, in the data set on human Factor 11 mRNA [1], the “% inhibition” value was 84%. Further, the “Percent inhibition of human Factor 11 mRNA levels” value with human Factor 11 mRNA [2] was 87%. For the same substance, the “Half-Life in the liver” value in data set [3] stood at 28.4 days. The “Half-life of ISIS oligonucleotides” value in data set [4] is reported as 28 days. In data set [5], this substance registered a Concentration of 169 mg/mL and a Viscosity of 29 cP.
Consider “416859 (antisense GACGGCATTGGTGCACAGTT; 5-10-5 gapmer, further chemistry not given here) [compound 416859]”, for which, in the data set with human Factor 11 mRNA [1], the “% inhibition” value is 90%. In addition, in the data set with human Factor 11 mRNA [2], the “Percent inhibition of human Factor 11 mRNA levels” value worked out at 85%. Moreover, the “Half-Life in the liver” value in data set [3] is given as 19.0 days. Further, the “Half-life of ISIS oligonucleotides” value in data set [4] came out at 19 days. Moreover, in data set [5], the Concentration turned out to be 161 mg/mL and the Viscosity is recorded as 10 cP.
For the substance “416863 (antisense CAGCGGACGGCATTGGTGCA; 5-10-5 gapmer, further chemistry not given here) [compound 416863]”, in the data set with human Factor 11 mRNA [1], the “% inhibition” value was 83%. For the same substance, the “Percent inhibition of human Factor 11 mRNA levels” value in the data set on human Factor 11 mRNA [2] worked out at 86%. In addition, in data set [3], the “Half-Life in the liver” value is given as 19.8 days. The “Half-life of ISIS oligonucleotides” value in data set [4] is 20 days. In addition, in data set [5], the Concentration is 165 mg/mL and the Viscosity was 9 cP.
Turning to “416866 (antisense CTGGCAGCGGACGGCATTGG; 5-10-5 gapmer, further chemistry not given here) [compound 416866]”, the “% inhibition” value in the data set on human Factor 11 mRNA [1] was 88%. Besides, the “Percent inhibition of human Factor 11 mRNA levels” value with human Factor 11 mRNA [2] was found to be 84%. In addition, the “Half-Life in the liver” value in data set [3] was found to be 16.0 days. In data set [4], the “Half-life of ISIS oligonucleotides” value is listed as 16 days. Also, in data set [5], the Concentration was determined as 166 mg/mL and the Viscosity was greater than 100 cP.
For the substance “416867 (antisense ACTGGCAGCGGACGGCATTG; 5-10-5 gapmer, further chemistry not given here) [compound 416867]”, in the data set on human Factor 11 mRNA [1], the “% inhibition” value amounted to 83%. Further, the “Percent inhibition of human Factor 11 mRNA levels” value in the data set with human Factor 11 mRNA [2] was 85%. Further, in data set [3], the “Half-Life in the liver” value was determined as 18.9 days. The “Half-life of ISIS oligonucleotides” value in data set [4] came out at 19 days. In data set [5], this substance displayed a Concentration of 168 mg/mL and a Viscosity of 8 cP.
As to “449711 (antisense eA*e[5mC]*dA*dG*dT*dT*dT*d[5mC]*dT*dG*dG*d[5mC]*eA*eG) [compound 449711]”, the “Percent inhibition of Factor 11 mRNA at 375 nM” value with human Factor 11 mRNA [6] (electroporation, 375 nM, approx. 16 hours, relative to untreated control cells) came to 6%. In addition, the “Percent inhibition of Factor 11 mRNA at 750 nM” value in the data set with human Factor 11 mRNA [6] (electroporation, 750 nM, approx. 16 hours, relative to untreated control cells) was determined as 14%. Besides, in the data set on human Factor 11 mRNA [6] (electroporation, 1,500 nM, approx. 16 hours, relative to untreated control cells), the “Percent inhibition of Factor 11 mRNA at 1,500 nM” value is 1%. For the same substance, in the data set with human Factor 11 mRNA [6] (electroporation, 3,000 nM, approx. 16 hours, relative to untreated control cells), the “Percent inhibition of Factor 11 mRNA at 3,000 nM” value worked out at 7%. In addition, in the data set with human Factor 11 mRNA [6] (electroporation, 6,000 nM, approx. 16 hours, relative to untreated control cells), the “Percent inhibition of Factor 11 mRNA at 6,000 nM” value was 32%. The “Percent inhibition of Factor 11 mRNA at 12,000 nM” value in the data set on human Factor 11 mRNA [6] (electroporation, 12,000 nM, approx. 16 hours, relative to untreated control cells) stood at 52%. In addition, in the data set on human Factor 11 mRNA [6] (electroporation, Factor 11 mRNA expression), the half-inhibitory concentration (IC50) worked out at 11 µM. In addition, the “% inhibition of Factor 11 mRNA in liver relative to the PBS control” value in the data set on Factor 11 mRNA is on record as 0%. The “Inhibition of Factor 11 protein relative to the PBS control (percentage reduction)” value was determined as 5% in the data set on Factor 11 protein (Day 10, plasma); 3% in the data set on Factor 11 protein (Day 17, plasma); 6% in the data set on Factor 11 protein (Day 24, plasma); 9% in the data set with Factor 11 protein (Day 31, plasma); 2% with Factor 11 protein (Day 38, plasma); 4% with Factor 11 protein (Day 45, plasma). For the same substance, the “Inhibition of Factor 11 protein relative to the PBS control (percentage reduction)” value in the data set on Factor 11 protein (Day 52, plasma) worked out at 3%; in the data set on Factor 11 protein (Day 55, plasma), 5%; with Factor 11 protein (Day −5, plasma), 1%; in the data set on Factor 11 protein (Day −14, plasma), 0%. Also, the Concentration in data set [5] was 209 mg/mL. For the same substance, the Viscosity in data set [5] is reported as 6 cP.

The values are drawn from patent US20230263822A1, “MODULATION OF FACTOR 11 EXPRESSION” (Ionis Pharmaceuticals, Inc., priority 2008, published 2023).
